According to US20260055097A9, “NRF2 PROTEIN DEGRADERS” (Ganymede Oncology, Inc., priority 2022, published 2026):
Where two headings read alike, the source gives them in different places.

Key:
Nrf2 = molecular target: T1, Nrf2 (Homo sapiens, UniProt Q16236); experiment: Nrf2 degradation in A549 HiBiT-Nrf2 cells, Nano-Glo HiBiT lytic detection (HiBiT readout); type: cell-based; set-up: host or cells: A549 HiBiT-Nrf2 cells (engineered line bought from Promega)
T1 sequence (Q16236 1-605): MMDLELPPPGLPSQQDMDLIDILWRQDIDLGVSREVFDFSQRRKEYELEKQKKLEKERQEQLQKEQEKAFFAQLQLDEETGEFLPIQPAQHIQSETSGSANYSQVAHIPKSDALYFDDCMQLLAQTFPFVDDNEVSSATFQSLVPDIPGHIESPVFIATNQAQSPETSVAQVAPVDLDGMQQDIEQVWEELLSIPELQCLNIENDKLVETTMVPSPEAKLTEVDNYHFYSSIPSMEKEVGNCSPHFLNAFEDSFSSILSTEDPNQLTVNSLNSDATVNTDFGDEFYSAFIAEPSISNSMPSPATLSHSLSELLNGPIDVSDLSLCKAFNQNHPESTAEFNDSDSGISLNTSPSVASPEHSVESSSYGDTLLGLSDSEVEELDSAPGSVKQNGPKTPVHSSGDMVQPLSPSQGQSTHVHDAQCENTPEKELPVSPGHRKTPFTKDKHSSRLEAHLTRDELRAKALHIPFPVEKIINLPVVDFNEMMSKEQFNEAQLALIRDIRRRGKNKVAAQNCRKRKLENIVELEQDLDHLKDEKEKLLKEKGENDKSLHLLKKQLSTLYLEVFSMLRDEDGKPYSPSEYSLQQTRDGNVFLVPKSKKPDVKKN
Method: A549 HiBiT-Nrf2 cells (Promega, Cat. No. CS3023219) were seeded into 384-well plates at cell density of 5,000 cells/well in 40 μL of cell culture medium (Ham's F-12 Nutrient Mix supplemented with 10% FBS and 1% antibiotic-antimycotic).
The next day, cells were treated with representative Compounds of the Disclosure and incubated for 6 h and 20 h at 37° C., 5% CO2. Staurosporine was used as a control.
At the end of incubation Nrf2 degradation (HiBiT readout) and cell viability (CellTiter-Glo readout) were determined. For HiBiT readout, Nano-Glo HiBiT Reagent mix (Promega, Cat. No. N3050) was added to wells, plates were incubated 2 min on an orbital shaker and incubated at room temperature in the dark for additional 30 minutes. At the end of incubation luminescence was measured using ultrasensitive luminescence mode (Envision, Perkin Elmer).

A549 = experiment: Cancer cell viability, A549 (CellTiter-Glo); type: cell-based; conditions: Homo sapiens, 72 h, A549 cells, 3 days, read-out: Cellular IC50 (μM) A549
Method: Representative Compounds of the Disclosure were tested in A549 (Vendor: ATCC; Cat #CCL-185; Description: lung, carcinoma) and/or LK-2 (Vendor: Riken; Cat #RCB1970; Description: lung, squamous cell carcinoma) cellular viability assays according to the following general protocol. • 1. Observed the cells under microscope. • 2. Aspirated the media and added 5 mL trypsin and incubate for 3 mins. • 3. Added 10 mL fresh media and harvested all the cells in to 15 mL tubes. • 4. Centrifuged the cells at 1000 rpm for 5 mins. • 5. Re-suspended the cells with 11 mL media and took 1 mL to determine the cell number and viability. • 6. Prepared cells suspension at 20 K/mL (A549) or 35 K/mL (LK-2) • 7. Seeded the cells into 96-well plate and incubated for overnight. • 8. […] After 3 days, took out the plates from the incubator and observed the cells under microscope. • 10. Passed a film at the bottom of the plates. • 11. Equilibrated the plate and its contents at room temperature for approximately 30 minutes. • 12. Thawed the CellTiter-Glo® Buffer and equilibrated to room temperature prior to use. • 13. Equilibrated the lyophilized CellTiter-Glo® Substrate to room temperature prior to use. • 14. Transferred 100 ml of CellTiter-Glo® Buffer into the amber bottle containing CellTiter-Glo® Substrate to reconstituted the lyophilized enzyme/substrate mixture. • 15. Mixed by gently vortexing, swirling or inverting the contents to obtain a homogeneous solution. • 16. Added 100 μL CellTiter-Glo® Reagent into each well • 17. Mixed contents for 15 minutes on an orbital shaker to induce cell lysis. • 18. Recorded luminescence with EnSpire machine. • 19. Passed the raw data into the file and analyzed the data with XLfit software.

[1] = 6 h, read-out: DC50 (nM) at 6 h
[2] = 20 h, read-out: DC50 (nM) at 20 h

Compound | DC50 (Nrf2; [1]) | DC50 (Nrf2; [2]) | IC50 (A549)
Cc1sc(NC(=O)Cc2cccc(OCCC(C)CCNc3cccc4c3C(=O)N(C3CCC(=O)NC3=O)C4=O)c2)nc1-c1ccc2c(c1)CCN2C(=O)C1CC1 (stereo not drawn) [Cpd. No. 41, N-(4-(1-(cyclopropanecarbonyl)indolin-5-yl)-5-methylthiazol-2-yl)-2-(3-((5-((2-(2,6-dioxopiperidin-3-yl)-1,3-dioxoisoindolin-4-yl)amino)-3-methylpentyl)oxy)phenyl)acetamide] | < 300 nM | < 300 nM | 
Cc1sc(NC(=O)Cc2cccc(OCCC(C)(C)CCNc3cccc4c3C(=O)N(C3CCC(=O)NC3=O)C4=O)c2)nc1-c1ccc2c(c1)CCN2C(=O)C1CC1 (stereo not drawn) [Cpd. No. 42, N-(4-(1-(cyclopropanecarbonyl)indolin-5-yl)-5-methylthiazol-2-yl)-2-(3-((5-((2-(2,6-dioxopiperidin-3-yl)-1,3-dioxoisoindolin-4-yl)amino)-3,3-dimethylpentyl)oxy)phenyl)acetamide] | > 3000 nM |  | 
Cc1sc(NC(=O)Cc2cccc(OCCN(C)CCNc3cccc4c3C(=O)N(C3CCC(=O)NC3=O)C4=O)c2)nc1-c1ccc2c(c1)CCN2C(=O)C1CC1 (stereo not drawn) [Cpd. No. 44, N-(4-(1-(cyclopropanecarbonyl)indolin-5-yl)-5-methylthiazol-2-yl)-2-(3-(2-((2-((2-(2,6-dioxopiperidin-3-yl)-1,3-dioxoisoindolin-4-yl)amino)ethyl)(methyl)amino)ethoxy)phenyl)acetamide] | < 300 nM | < 300 nM | 
Cc1sc(NC(=O)Cc2cccc(OCCC(C)CCOc3cccc4c3C(=O)N(C3CCC(=O)NC3=O)C4=O)c2)nc1-c1ccc2c(c1)CCN2C(=O)C1CC1 (stereo not drawn) [Cpd. No. 47, N-(4-(1-(cyclopropanecarbonyl)indolin-5-yl)-5-methylthiazol-2-yl)-2-(3-((5-((2-(2,6-dioxopiperidin-3-yl)-1,3-dioxoisoindolin-4-yl)oxy)-3-methylpentyl)oxy)phenyl)acetamide] | 300 to 3000 nM | 300 to 3000 nM | 
Cc1sc(NC(=O)Cc2cccc(OCCC(C)(C)CCOc3cccc4c3C(=O)N(C3CCC(=O)NC3=O)C4=O)c2)nc1-c1ccc2c(c1)CCN2C(=O)C1CC1 (stereo not drawn) [Cpd. No. 48, N-(4-(1-(cyclopropanecarbonyl)indolin-5-yl)-5-methylthiazol-2-yl)-2-(3-((5-((2-(2,6-dioxopiperidin-3-yl)-1,3-dioxoisoindolin-4-yl)oxy)-3,3-dimethylpentyl)oxy)phenyl)acetamide] | > 3000 nM | 300 to 3000 nM | 
Cc1sc(NC(=O)Cc2cccc(OCCC(C)(C)CCNc3ccc4c(c3)C(=O)N(C3CCC(=O)NC3=O)C4=O)c2)nc1-c1ccc2c(c1)CCN2C(=O)C1CC1 (stereo not drawn) [Cpd. No. 51, N-(4-(1-(cyclopropanecarbonyl)indolin-5-yl)-5-methylthiazol-2-yl)-2-(3-((5-((2-(2,6-dioxopiperidin-3-yl)-1,3-dioxoisoindolin-5-yl)amino)-3,3-dimethylpentyl)oxy)phenyl)acetamide] | < 300 nM | < 300 nM | 
Cc1sc(NC(=O)Cc2cccc(OCCCCNc3cccc4c3C(=O)N(C3CCC(=O)NC3=O)C4=O)c2)nc1-c1ccc2c(c1)CCN2C(=O)C1CC1 (stereo not drawn) [Cpd. No. 65, N-(4-(1-(cyclopropanecarbonyl)indolin-5-yl)-5-methylthiazol-2-yl)-2-(3-(4-((2-(2,6-dioxopiperidin-3-yl)-1,3-dioxoisoindolin-4-yl)amino)butoxy)phenyl)acetamide] | < 300 nM | < 300 nM | 0.12 µM
Cc1sc(NC(=O)Cc2cccc(OCCCCCCNc3cccc4c3C(=O)N(C3CCC(=O)NC3=O)C4=O)c2)nc1-c1ccc2c(c1)CCN2C(=O)C1CC1 (stereo not drawn) [Cpd. No. 66, N-(4-(1-(cyclopropanecarbonyl)indolin-5-yl)-5-methylthiazol-2-yl)-2-(3-((6-((2-(2,6-dioxopiperidin-3-yl)-1,3-dioxoisoindolin-4-yl)amino)hexyl)oxy)phenyl)acetamide] | 300 to 3000 nM | < 300 nM | 0.16 µM
CC(=O)N1CCc2cc(-c3nc(NC(=O)Cc4cccc(OCCCCCNc5cccc6c5C(=O)N(C5CCC(=O)NC5=O)C6=O)c4)sc3C)ccc21 (stereo not drawn) [Cpd. No. 67, N-(4-(1-acetylindolin-5-yl)-5-methylthiazol-2-yl)-2-(3-((5-((2-(2,6-dioxopiperidin-3-yl)-1,3-dioxoisoindolin-4-yl)amino)pentyl)oxy)phenyl)acetamide] | < 300 nM | < 300 nM | 0.75 µM

Now from value to compound:

DC50 (Nrf2; [1]) | DC50 (Nrf2; [2]) | IC50 (A549) | Compound
 |  | > 30 µM | Cc1sc(NC(=O)Cc2cccc(OCCOCCNc3cccc4c3C(=O)N(C3CCC(=O)NC3=O)C4)c2)nc1-c1ccc2c(c1)CCN2C(=O)C1CC1 (stereo not drawn) [Cpd. No. 81, N-(4-(1-(cyclopropanecarbonyl)indolin-5-yl)-5-methylthiazol-2-yl)-2-(3-(2-(2-((2-(2,6-dioxopiperidin-3-yl)-3-oxoisoindolin-4-yl)amino)ethoxy)ethoxy)phenyl) acetamide]
300 to 3000 nM | 300 to 3000 nM |  | Cc1sc(NC(=O)Cc2cccc(OCCC(C)CCNc3ccc4c(c3)C(=O)N(C3CCC(=O)NC3=O)C4=O)c2)nc1-c1ccc2c(c1)CCN2C(=O)C1CC1 (stereo not drawn) [compound 50, N-(4-(1-(cyclopropanecarbonyl)indolin-5-yl)-5-methylthiazol-2-yl)-2-(3-((5-((2-(2,6-dioxopiperidin-3-yl)-1,3-dioxoisoindolin-5-yl)amino)-3-methylpentyl)oxy)phenyl)acetamide]
 |  | 0.045 µM | Cc1ncccc1C(=O)N1CCc2cc(-c3nc(NC(=O)Cc4cccc(OCCCCCNc5cccc6c5C(=O)N(C5CCC(=O)NC5=O)C6=O)c4)sc3C)ccc21 (stereo not drawn) [compound 83, 2-(3-((5-((2-(2,6-dioxopiperidin-3-yl)-1,3-dioxoisoindolin-4-yl)amino)pentyl)oxy)phenyl)-N-(5-methyl-4-(1-(2-methylnicotinoyl)indolin-5-yl)thiazol-2-yl)acetamide]
 |  | 0.046 µM | Cc1cnccc1C(=O)N1CCc2cc(-c3nc(NC(=O)Cc4cccc(OCCCCCNc5cccc6c5C(=O)N(C5CCC(=O)NC5=O)C6=O)c4)sc3C)ccc21 (stereo not drawn) [compound 84, 2-(3-((5-((2-(2,6-dioxopiperidin-3-yl)-1,3-dioxoisoindolin-4-yl)amino)pentyl)oxy)phenyl)-N-(5-methyl-4-(1-(3-methylisonicotinoyl)indolin-5-yl)thiazol-2-yl)acetamide]
 |  | 0.047 µM | Cc1ccncc1C(=O)N1CCc2cc(-c3nc(NC(=O)Cc4cccc(OCCCCCNc5cccc6c5C(=O)N(C5CCC(=O)NC5=O)C6=O)c4)sc3C)ccc21 (stereo not drawn) [compound 85, 2-(3-((5-((2-(2,6-dioxopiperidin-3-yl)-1,3-dioxoisoindolin-4-yl)amino)pentyl)oxy)phenyl)-N-(5-methyl-4-(1-(4-methylnicotinoyl)indolin-5-yl)thiazol-2-yl)acetamide]
 |  | 0.072 µM | Cc1cccnc1C(=O)N1CCc2cc(-c3nc(NC(=O)Cc4cccc(OCCCCCNc5cccc6c5C(=O)N(C5CCC(=O)NC5=O)C6=O)c4)sc3C)ccc21 (stereo not drawn) [compound 86, 2-(3-((5-((2-(2,6-dioxopiperidin-3-yl)-1,3-dioxoisoindolin-4-yl)amino)pentyl)oxy)phenyl)-N-(5-methyl-4-(1-(3-methylpicolinoyl)indolin-5-yl)thiazol-2-yl)acetamide]
